System: human patients
Test: Administration to human patients, efficacy as a cognition enhancer
Type: in vivo
Method: Compound X has active doses around 5-125 microgramme (μg) (calculated as free base). It has been found through administration to human patients that efficacy as a cognition enhancer may be obtained at daily doses below 0.01 mg/kg more particularly 0.003 mg/kg and below, for example 0.0001-0.003 mg/kg, such as 0.00035-0.003 mg/kg. 0.0007-0.003 mg/kg, 0.0001-0.0007 mg/kg or 0.00035-0.002 mg/kg.

CO/N=C(\C#N)[C@H]1CN2CCC1CC2.Cl [Compound X, [R-(Z)]-α-(methoxyimino)-α-(1-azabicyclo [2.2.2]oct-3-yl)acetonitrile monohydrochloride]
active doses (calculated as free base): 5 to 125 µg
daily doses at which efficacy as a cognition enhancer may be obtained (human patients, daily dose): below 0.01 mg/kg

From US6468560B2, “Controlled release dosage form of [R-(Z)]-α-(methoxyimino)-α-(1-azabicyclo[2.2.2]oct-3yl) acetonitrile monohydrochloride” (SmithKline Beecham p.l.c., priority 1996, dated 2002)
